Data taken from US20130331381A1, “Treatment of Cancer WIth Dopamine Receptor Antagonists” (McMaster University, priority 2011, published 2013).
Structures can show the parent of a compound that is named as a salt. Where two headings read alike, the source gives them in different places.

Key:
primary AML cells = assay: Methylcellulose blast-CFU assay, primary AML cells; format: cell-based, human; details: for AML-blast CFU potential: salinomycin at 1 μM and 10 μM, 24 h treatment, 5 AML patient samples
Description: (§3) Normal HSCs and progenitors were sourced from either mobilized peripheral blood or umbilical cord blood of health patients. Primary AML cells were taken from patients diagnosed with AML. Both normal HSCs and primary AML cells were cultured under standard in vitro methocellulose assay conditions (see http://www.stemcell.com/en/Products/All-Products/MethoCult-H4434-Classic.aspx as well as Clinton Campbell et al. The human stem cell hierarchy is defined by a functional dependence on Mcl-1 for self-renewal capacity. Blood 116 (9) 1433-1442 (Jun. 4, 2010), hereby incorporated by reference) for at least 14 days before the number of colonies were recorded.
(§4) AML patient blasts were cultured in IMDM supplemented with 5% heated inactivated FBS (HyClone), 5 ng/mL IL3 (R&D systems), 5×10^−5 M β-mercaptoethanol (Sigma) and BIT (StemCell Technologies). HSC media contained IMDM supplemented with 1% BSA (Sigma), 100 ng/mL SCF (R&D systems), 100 ng/mL Flt-3L (R&D systems) and 20 ng/mL TPO (R&D systems). Patient HSPC and AML samples were treated with compound or DMSO-vehicle (0.1%) for 24 h prior to CFU plating or xenotransplantation studies.
(§5) AML patient or CB lin− cells were cultured 24 hours in the presence of compound or DMSO-vehicle (0.1%) control. AML cells were plated at 50 000 cells/mL in Methocult GF H4434 (Stem Cell Technologies). CB lin− cells were plated at 1000 cells/mL in Methocult GF H4434 (Stem Cell Technologies). Colonies were scored after 14 days of culture using standard morphological criteria.

[1] = test system: normal HSCs and progenitors (CB lin-)
Description: as §3, §4, §5

AML-OCI2 and AML-OCI3 = assay: Volumetric cell counting of AML cell lines; format: cell-based, human; details: 72 h, serum-free conditions
Description: The number of AML-OCI2 and AML-OCI3 cells present after 72 h treatment with DR antagonists (FIG. 16b) and agonist (FIG. 16c-d) were counted by measuring the number of events within a fixed volume following the grating strategy defined by forward scatter and side scatter clustering, 7AAD− and Hoechst+.
(§1) Due to the bioavailability of dopamine in fetal bovine serum (FBS) (Little et al., 2002), serum-free conditions were employed to assess the role of DRs in AML. […] DR D2-family and D1-family exert opposing actions on intracellular signaling leading to differential biological effects (Self et al., 1996).

v1H9-Oct4-GFP cells = assay: Chemical screen for differentiation of neoplastic hPSC (GFP and Hoechst); format: cell-based; details: Homo sapiens; for activity at 10 µM: 72 h, read-out: Hoechst % RA (residual activity)
Description: Chemical screens involved v1H9-Oct4-GFP cells seeded at 5,000 cells per well in mouse embryonic fibroblast conditioned media (MEFCM) supplemented with 8 ng/ml bFGF. 24 hours later the media was exchanged for MEFCM with compounds at 10 μM and 0.1% DMSO, 0.1% DMSO (−BMP4) or 100 ng/ml of BMP4 and 0.1% DMSO (+BMP4) for 48 hours before being exchanged with fresh media with compound for a further 24 h (total compound treatment time 72 h) prior to being fixed and prepared for automated imaging and plate reader analysis. Confluent H9 & fibroblast-derived iPSC were seeded at 10,000 cells per well in MEFCM supplemented with 8 ng/ml bFGF. 24 hours later the cells were treated with compounds at 10 μM and 0.1% DMSO, 0.1% DMSO (−BMP4) or 100 ng/ml of BMP4 and 0.1% DMSO (+BMP4). Fresh MEFCM supplemented with compounds was exchanged daily for 5 days. On day 5, hPSC's were fixed and prepared for automated imaging and plate reader analysis. See supplementary experimental procedures for further details.
Cells were fixed in 2% paraformaldehyde and stained with 10 μg/mL Hoechst 33342 (Invitrogen) with a Combi Multidrop Dispenser (Thermo). For experiments that involved Oct4 immunocytochemistry, a monoclonal antibody for Oct4 (BD) was used along with an Alexa-Fluor-647 secondary (Invitrogen). Immunocytochemical staining was performed by a Janus automated liquid handler (Perkin Elmer). Images were acquired at 10×N.A with an Arrayscan HCS VTI Reader (Cellomics) by means of epi-fluorescence illumination and standard filter sets.
Image analysis was performed using custom scripts in Acapella software (Perkin Elmer). Nuclear objects were segmented from the Hoechst signal. For neoplastic cell lines, object intensity analysis was performed on GFP positive cells only. For normal cell lines, the fraction of Alexa-Fluor-647-positive cells was quantified. Images and well-level data were stored and analysed in a Columbus Database (Perkin Elmer) and further data analysis, compounds registration and hit identification in ActivityBase (IDBS).
These Collections have been previously scrutinized in numerous other mammalian cell lines (Diallo et al., 2010; Shoemaker, 2006).

[2] = test system: HL-60, OCI-AML2 and OCI-AML3; assay: Cytotoxicity of DR agonists and antagonists against AML cell lines; format: cell-based, human; details: CLOZ at higher concentrations; FIG. 6
Description: (§2) All three lines are leukemic cell lines. HL-60 was derived from promyelocytic AML whereas MV 4-11 and OCI-AML3 are representative of AML. Each compound was incubated with the cells for 72 h. The control was DMSO (ie the vehicle used for the compound) for 72 h. Each condition had three replicates.
A series of dopamine receptor agonists, D3-antagonists, DR1 & 5-antagonists and multi-receptor antagonists were tested for cytotoxicity against three AML cell lines HL-60, OCI-AML2 and OCI-AML3. Testing was performed as set out in Example 1.

[3] = test system: neoplastic hPSCs (v1H9-Oct4-GFP); assay: Flow cytometry of Oct4 in neoplastic hPSCs; format: cell-based, human; details: FIG. 10b
AML LSCs = assay: Xenotransplantation of compound-treated AML cells; format: in vivo, human; details: AML cells treated at 10 μM, NSG mice
Description: NOD.Cg-Prkdc^scid II2rg^tm1Wjl/SzJ adult mice (NSG) were sub-lethally irradiated with 315 rads 24 hours prior transplantation. 0.8−1.0×10^7 AML MNCs or 1.5−1.8×10^5 CB lin− hematopoietic cells treated with compound or DMSO-vehicle for 24 h were injected via tail vein (IV). After 6-10 weeks, animals were culled, and the BM and spleen were analyzed for the presence of human cells by flow cytometry (LSRII, BD) and data was analyzed using FlowJo software (Tree Star Inc). For secondary HSPC transplants, equal number of engrafted human cells from CB lin− transplants were injected IV in adult irradiated NSG mice as described for primary transplants.

[4] = test system: HL-60, MV4-11 and OCI-AML3; assay: Cytotoxicity to leukemic cell lines (normalized cell number, 72 h); format: cell-based, human; details: for normalized cell number / toxicity: 10 μM
Description: as §2
The dopamine receptor antagonist and phenothiazine-related compound chlorpromazine was also investigated for effects on the AML cell lines HL-60, MV4-11 and OCI-AML3. Testing was performed as set out in Example 1.

neoplastic hPSCs = assay: TaqMan Low-Density Array-qPCR of differentiation genes; format: cell-based, human; details: thioridazine-treated neoplastic hPSCs
Description: Cells in specific conditions were collected and RNA was extracted by using RNeasy kit (Qiagen), complementary DNA (cDNA) generation by using SuperScript III® cDNA synthesis kit (Invitrogen), pre-amplification and TaqMan® array reaction (Applied Biosystems) were performed according to manufacturer's instructions. The gene expression profile for each treated cell population was analyzed using TaqMan® Stem Cell Pluripotency Array Card on ViiA 7 Real-Time PCR System (Applied Biosystems). Each reaction sample was dispensed into loading wells on the array card and centrifuged twice at 336×g for 1 min each time, sealed, and placed in the thermal cycler. The following cycling conditions were used for all array card applications: 45° C. for 10 min, 94° C. for 10 min, and 40 cycles of 94° C. for 30 s followed by 60° C. for min. Array data were normalized to 18S RNA and GAPDH and comparisons were performed using data analysis 2.0 software (Applied Biosystems).

[5] = test system: normal HSCs and progenitors (CB lin-); assay: Methylcellulose colony forming assay, normal HSCs / HSPCs; details: 10 μM, at least 14 days; DMSO control about 100
Description: as §3, §4, §5

[6] = test system: CD14+ cells in primary AML; assay: Frequency of CD14+ cells in primary AML by flow cytometry; format: cell-based, human; details: 10 μM, 72 h; control 100%
[7] = test system: patient AML samples, DR+ and DR- subfractions; assay: Blast-CFU content of DR+ and DR- sorted patient AML samples; format: cell-based, human; details: 24 h treatment
Source text: as §1

patient AML cells = assay: CD11b granulocytic maturation in patient AML cells; format: cell-based, human; details: 10 μM, up to 96 hours

Structure (SMILES): CC[C@@H](C(=O)[C@@H](C)[C@@H](O)[C@H](C)[C@@H]1O[C@@H]([C@@H](CC)C(=O)O)CC[C@@H]1C)[C@H]1O[C@]2(C=C[C@@H](O)[C@]3(CC[C@@](C)([C@H]4CC[C@](O)(CC)[C@H](C)O4)O3)O2)[C@H](C)C[C@@H]1C [salinomycin]
- AML-blast CFU potential (primary AML cells): reduced
- HSPC CFU potential [1]: reduced

Structure (SMILES): Br.CCCN(CCC)[C@@H]1CCc2ccc(O)cc2C1 [70H-DPAT, R(+)-7-Hydroxy-DPAT hydrobromide]
- number of AML cells (AML-OCI2 and AML-OCI3): increased

Structure (SMILES): CNC1CC(c2ccc(Cl)c(Cl)c2)c2ccccc21 (stereo not shown) [indatraline]
- activity at 10 µM (v1H9-Oct4-GFP cells): > 30%

Structure (SMILES): CN1CCN(C2=Nc3cc(Cl)ccc3Nc3ccccc32)CC1 [clozapine, Clozapine]
- cytotoxicity of AML cell lines [2]: significant effect

Structure (SMILES): OC(c1cc(C(F)(F)F)nc2c(C(F)(F)F)cccc12)C1CCCCN1 (stereo not shown) [mefloquine]
- AML-blast CFU potential (primary AML cells): reduced
- cell number, neoplastic hPSCs [3]: reductions
- levels of Oct4 in neoplastic hPSCs [3]: reductions
- AML LSC capacity (CD45+ CD33+ blast engraftment) (AML LSCs): ineffective
- HSPC CFU potential [1]: little effect
- activity at 10 µM (v1H9-Oct4-GFP cells; 10 μM): > 30%
- EC50 (v1H9-Oct4-GFP cells; dose response, FIG. 9g, read-out: EC50, reduction in GFP intensity): < 10 µM

Structure (SMILES): Cn1cnc([N+](=O)[O-])c1Sc1ncnc2nc[nH]c12 [azathioprine]
- activity at 10 µM (v1H9-Oct4-GFP cells; 10 μM): > 30%

Structure (SMILES): Oc1cc2c(cc1O)[C@@H](c1ccccc1)CNCC2 [SKF38393, (R)-(+)-SKF-38393 hydrochloride]
- number of AML cells (AML-OCI2 and AML-OCI3): significant reduction

Structure (SMILES): CSc1ccc2c(c1)N(CCC1CCCCN1C)c1ccccc1S2 (racemic) [thioridazine, 10-{2-[(RS)-1-Methylpiperidin-2-yl]ethyl}-2-methylsulfanylphenothiazine]
- number of CFU colonies, AML cells (primary AML cells; 10 μM, at least 14 days, control about 22): 1.6 blast colonies
- AML-blast CFU potential (primary AML cells): reduced
- cell number, neoplastic hPSCs [3]: reductions
- levels of Oct4 in neoplastic hPSCs [3]: reductions
- normalized cell number ([4]; 0.1 μM and 1 μM): little effect
- normalized cell number / toxicity [4]: almost zero
- upregulated differentiation-associated genes (neoplastic hPSCs): 21 of 50
- AML LSC capacity (CD45+ CD33+ blast engraftment) (AML LSCs): significantly reduce
- HSPC CFU potential [1]: little effect
- activity at 10 µM (v1H9-Oct4-GFP cells; 10 μM): > 30%
- cytotoxicity of AML cell lines [2]: significant effect
- colony forming potential of normal HSCs, total colonies [5]: about 66 total colonies
- normalized frequency of CD14+ cells [6]: 20%
- number of AML cells (AML-OCI2 and AML-OCI3): reduced
- blast-CFU generation, DR+ subfraction [7]: reduction
- blast-CFU generation, DR- subfraction [7]: no reduction
- frequency of CD11b granulocytic AML-blast cells (patient AML cells): marked increase

Structure (SMILES): CN(C)CCCN1c2ccccc2Sc2ccc(Cl)cc21 [chlorpromazine, Chlorpromazine hydrochloride]
- normalized cell number / toxicity [4]: toxic
- cytotoxicity of AML cell lines [2]: significant effect
- number of AML cells (AML-OCI2 and AML-OCI3): reduced
